Assay results as given in ChEMBL document CHEMBL1909046, “DrugMatrix in vitro pharmacology data”.

Assays:
[1] = biological target: T1, Alpha-2A adrenergic receptor (Homo sapiens, UniProt P08913); format: cell membranes, Sf9, Membrane; also: in other assays of this panel Not Active means under 50% inhibition at 10 µM
T1 sequence (P08913 whole entry): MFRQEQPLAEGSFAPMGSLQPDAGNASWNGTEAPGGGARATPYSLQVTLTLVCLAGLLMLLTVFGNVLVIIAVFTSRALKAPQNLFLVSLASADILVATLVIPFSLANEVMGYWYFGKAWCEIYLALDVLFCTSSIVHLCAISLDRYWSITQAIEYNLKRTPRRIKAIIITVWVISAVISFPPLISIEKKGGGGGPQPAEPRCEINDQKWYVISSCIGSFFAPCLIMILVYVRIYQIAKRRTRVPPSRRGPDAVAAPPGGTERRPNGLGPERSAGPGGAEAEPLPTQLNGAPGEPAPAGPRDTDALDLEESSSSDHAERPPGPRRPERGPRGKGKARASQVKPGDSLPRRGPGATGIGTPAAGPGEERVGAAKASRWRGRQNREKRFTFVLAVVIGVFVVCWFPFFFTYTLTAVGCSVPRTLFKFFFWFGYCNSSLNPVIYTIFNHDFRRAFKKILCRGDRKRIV

[2] = biological target: T2, Cholecystokinin receptor type A (Homo sapiens, UniProt P32238); format: cell membranes, Membrane; settings: 1321-n1; also: in other assays of this panel Not Active means under 50% inhibition at 10 µM
T2 sequence (P32238 whole entry): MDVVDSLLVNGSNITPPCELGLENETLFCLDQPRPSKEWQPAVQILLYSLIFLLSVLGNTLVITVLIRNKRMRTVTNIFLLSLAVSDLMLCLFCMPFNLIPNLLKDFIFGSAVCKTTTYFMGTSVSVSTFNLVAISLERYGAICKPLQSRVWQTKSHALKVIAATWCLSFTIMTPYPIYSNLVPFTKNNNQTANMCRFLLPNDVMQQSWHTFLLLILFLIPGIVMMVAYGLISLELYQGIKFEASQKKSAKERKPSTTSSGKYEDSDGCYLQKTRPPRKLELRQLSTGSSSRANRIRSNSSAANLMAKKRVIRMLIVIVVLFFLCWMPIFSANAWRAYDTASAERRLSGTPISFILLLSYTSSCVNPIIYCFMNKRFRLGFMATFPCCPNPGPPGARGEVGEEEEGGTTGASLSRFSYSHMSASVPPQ

Interstitial collagenase = biological target: T3, Interstitial collagenase (Homo sapiens, UniProt P03956); format: tissue-based, Rheumatoid synovial fibroblasts;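 also: MMP-1 enzyme inhibition assay using a peptide substrate; in other assays of this panel Not Active means under 50% inhibition at 10 µM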
T3 sequence (P03956 whole entry): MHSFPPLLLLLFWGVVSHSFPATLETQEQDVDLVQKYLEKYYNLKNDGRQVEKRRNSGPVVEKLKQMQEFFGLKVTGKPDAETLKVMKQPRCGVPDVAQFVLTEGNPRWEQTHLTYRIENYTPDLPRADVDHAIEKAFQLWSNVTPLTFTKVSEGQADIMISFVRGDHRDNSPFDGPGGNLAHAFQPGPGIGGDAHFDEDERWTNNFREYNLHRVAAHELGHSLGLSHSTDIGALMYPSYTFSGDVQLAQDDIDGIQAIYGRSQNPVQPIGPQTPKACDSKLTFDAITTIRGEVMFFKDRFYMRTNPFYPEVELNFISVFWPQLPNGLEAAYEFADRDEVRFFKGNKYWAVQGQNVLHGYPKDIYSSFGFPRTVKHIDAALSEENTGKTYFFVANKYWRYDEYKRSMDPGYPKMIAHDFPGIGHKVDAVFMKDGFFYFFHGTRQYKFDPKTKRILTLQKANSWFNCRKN

[3] = DRUGMATRIX: Calcium Channel Type L, Phenylalkylamine radioligand binding (ligand: [3H] (-)-Desmethoxyverapamil (D-888)); format: cell membranes, Rattus norvegicus, Wistar, Brain, Membrane; settings: Not Active = under 50% inhibition at 10 µM
[4] = biological target: Matrix metalloproteinase-9 (Homo sapiens, UniProt P14780); format: cell-based;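 also: inhibition of isolated MMP-9 enzyme activity toward a synthetic peptide substrate, from the DrugMatrix protease screening panel; in other assays of this panel Not Active means under 50% inhibition at 10 µM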
Sequence of Matrix metalloproteinase-9 (P14780 whole entry): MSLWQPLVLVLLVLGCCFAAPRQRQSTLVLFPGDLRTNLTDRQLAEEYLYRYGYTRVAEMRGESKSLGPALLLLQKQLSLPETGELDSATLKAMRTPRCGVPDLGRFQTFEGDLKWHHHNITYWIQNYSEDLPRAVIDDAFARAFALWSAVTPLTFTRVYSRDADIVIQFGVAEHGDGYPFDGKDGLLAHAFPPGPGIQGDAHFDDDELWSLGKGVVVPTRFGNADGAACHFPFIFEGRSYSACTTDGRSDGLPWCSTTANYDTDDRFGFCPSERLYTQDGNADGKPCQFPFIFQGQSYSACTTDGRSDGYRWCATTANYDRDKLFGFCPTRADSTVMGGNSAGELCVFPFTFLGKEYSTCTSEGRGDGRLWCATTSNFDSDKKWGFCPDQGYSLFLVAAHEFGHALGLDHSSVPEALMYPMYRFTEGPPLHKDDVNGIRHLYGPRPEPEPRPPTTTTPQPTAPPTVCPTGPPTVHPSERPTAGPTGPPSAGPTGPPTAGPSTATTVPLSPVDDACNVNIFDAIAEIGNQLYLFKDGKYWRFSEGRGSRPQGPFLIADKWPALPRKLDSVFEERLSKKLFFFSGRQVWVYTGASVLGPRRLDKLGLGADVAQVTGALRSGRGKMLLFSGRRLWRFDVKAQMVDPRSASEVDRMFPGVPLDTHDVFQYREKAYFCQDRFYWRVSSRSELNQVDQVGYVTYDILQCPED

[5] = biological target: 5-hydroxytryptamine receptor 4 (Cavia porcellus, UniProt O70528); format: cell membranes, Dunkin-Hartley, Striatum, Membrane; also: in other assays of this panel Not Active means under 50% inhibition at 10 µM
Sequence of 5-hydroxytryptamine receptor 4 (O70528 whole entry): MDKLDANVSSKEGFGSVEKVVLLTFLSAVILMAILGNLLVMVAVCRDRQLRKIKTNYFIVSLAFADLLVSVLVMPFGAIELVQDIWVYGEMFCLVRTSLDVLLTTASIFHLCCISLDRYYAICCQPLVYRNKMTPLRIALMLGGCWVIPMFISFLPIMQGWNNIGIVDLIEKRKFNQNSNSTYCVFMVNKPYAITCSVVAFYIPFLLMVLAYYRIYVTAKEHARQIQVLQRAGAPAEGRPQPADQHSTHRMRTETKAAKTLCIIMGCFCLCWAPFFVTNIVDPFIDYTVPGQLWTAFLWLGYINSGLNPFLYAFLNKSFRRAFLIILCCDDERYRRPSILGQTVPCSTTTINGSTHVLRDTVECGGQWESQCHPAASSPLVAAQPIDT

[6] = biological target: Prostaglandin G/H synthase 1 (Homo sapiens, UniProt P23219); assay: biochemical; format: tissue-based, Platelet; settings: platelet
Sequence of Prostaglandin G/H synthase 1 (P23219 whole entry): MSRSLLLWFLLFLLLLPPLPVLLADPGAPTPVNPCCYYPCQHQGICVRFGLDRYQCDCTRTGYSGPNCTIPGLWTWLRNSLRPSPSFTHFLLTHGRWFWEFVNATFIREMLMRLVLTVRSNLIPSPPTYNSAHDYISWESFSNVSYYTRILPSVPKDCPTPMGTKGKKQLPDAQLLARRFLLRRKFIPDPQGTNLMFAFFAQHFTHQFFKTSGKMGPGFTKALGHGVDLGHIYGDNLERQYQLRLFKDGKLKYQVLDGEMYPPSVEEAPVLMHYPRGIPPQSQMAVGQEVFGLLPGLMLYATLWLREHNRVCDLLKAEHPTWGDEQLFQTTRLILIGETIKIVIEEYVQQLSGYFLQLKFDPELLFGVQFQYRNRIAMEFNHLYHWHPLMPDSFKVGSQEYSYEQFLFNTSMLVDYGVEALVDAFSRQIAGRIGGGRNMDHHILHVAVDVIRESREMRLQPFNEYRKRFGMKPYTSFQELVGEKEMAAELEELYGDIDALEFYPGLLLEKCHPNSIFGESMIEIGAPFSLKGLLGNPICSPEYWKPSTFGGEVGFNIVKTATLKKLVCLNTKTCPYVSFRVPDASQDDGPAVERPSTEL

[7] = biological target: Platelet-activating factor receptor (Homo sapiens, UniProt P25105); assay: biochemical; format: tissue-based; also: in other assays of this panel Not Active means under 50% inhibition at 10 µM
Sequence of Platelet-activating factor receptor (P25105 whole entry): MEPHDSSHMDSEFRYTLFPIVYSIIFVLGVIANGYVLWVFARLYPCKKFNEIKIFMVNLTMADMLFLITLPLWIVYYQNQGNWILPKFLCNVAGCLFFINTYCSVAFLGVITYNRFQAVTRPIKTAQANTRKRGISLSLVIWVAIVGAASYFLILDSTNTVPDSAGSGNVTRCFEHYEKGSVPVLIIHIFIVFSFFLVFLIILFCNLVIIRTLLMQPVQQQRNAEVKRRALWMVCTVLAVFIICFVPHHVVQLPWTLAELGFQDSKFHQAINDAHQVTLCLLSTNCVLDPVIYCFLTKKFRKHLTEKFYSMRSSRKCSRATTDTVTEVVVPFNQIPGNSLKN

[8] = DRUGMATRIX: Phosphodiesterase PDE4 enzyme inhibition (substrate: [3H]cAMP + cAMP); settings: u-937; Not Active = under 50% inhibition at 10 µM
Mu-type opioid receptor = Mu-type opioid receptor (Homo sapiens, UniProt P35372); assay: DRUGMATRIX: Opiate mu (OP3, MOP) radioligand binding (ligand: [3H] Diprenorphine); format: cell membranes, CHO-K1, Membrane; settings: cho-k1; Not Active = under 50% inhibition at 10 µM
Sequence of Mu-type opioid receptor (P35372 whole entry): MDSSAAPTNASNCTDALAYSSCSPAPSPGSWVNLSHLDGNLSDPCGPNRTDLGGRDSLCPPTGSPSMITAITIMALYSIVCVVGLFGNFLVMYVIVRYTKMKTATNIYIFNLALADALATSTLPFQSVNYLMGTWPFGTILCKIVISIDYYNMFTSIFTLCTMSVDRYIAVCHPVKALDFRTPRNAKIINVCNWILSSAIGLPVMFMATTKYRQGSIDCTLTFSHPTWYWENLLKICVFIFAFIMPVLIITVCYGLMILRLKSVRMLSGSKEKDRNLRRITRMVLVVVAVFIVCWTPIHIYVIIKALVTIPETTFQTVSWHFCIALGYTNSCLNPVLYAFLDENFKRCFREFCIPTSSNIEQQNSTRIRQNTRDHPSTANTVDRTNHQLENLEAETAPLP

| Molecule | IC50 ([1]; sf9) | IC50 [2] | IC50 (Interstitial collagenase) | IC50 [3] | Ki [3] | IC50 [4] | IC50 [5] | IC50 [6] | IC50 ([7]; platelet) | IC50 [8] | Ki [8] | IC50 (Mu-type opioid receptor) | further results |
| --- | --- | --- | --- | --- | --- | --- | --- | --- | --- | --- | --- | --- | --- |
| CCOC(=O)[C@H](CCc1ccccc1)N[C@@H](C)C(=O)N1[C@H](C(=O)O)C[C@@H]2CCC[C@@H]21 | Not Active | Not Active | Not Active | Not Active | Not Active | Not Active | Not Active | Not Active | Not Active | Not Active | Not Active | Not Active | – |
| CC(C)(C)NC(=O)[C@@H]1CN(Cc2cccnc2)CCN1C[C@@H](O)C[C@@H](Cc1ccccc1)C(=O)N[C@H]1c2ccccc2C[C@H]1O.O | Not Active | Not Active | Not Active | Not Active | Not Active | Not Active | Not Active | Not Active | Not Active | Not Active | Not Active | Not Active | – |
| CC1(C)[C@H]2CC[C@]1(C)C(=O)C2 [(-)-CAMPHOR] | Not Active | Not Active | Not Active | Not Active | Not Active | Not Active | Not Active | Not Active | Not Active | Not Active | Not Active | Not Active | – |
| CC(C)(C)NCC(O)c1ccc(O)c(CO)c1 (configuration not stated) [ALBUTEROL] | Not Active | Not Active | Not Active | Not Active | Not Active | Not Active | Not Active | Not Active | Not Active | Not Active | Not Active | Not Active | – |
| COc1ccc(CCN2CCC(Nc3nc4ccccc4n3Cc3ccc(F)cc3)CC2)cc1 [ASTEMIZOLE] | – | Not Active | Not Active | – | – | Not Active | Not Active | Not Active | Not Active | – | – | – | – |
| CN(C)CCCN1c2ccccc2CCc2ccc(Cl)cc21 [CLOMIPRAMINE] | – | Not Active | Not Active | – | – | Not Active | Not Active | Not Active | Not Active | – | – | Not Active | IC50 ([1]; read-out: IC50): 1.41 µM |
| Clc1ccccc1C(c1ccccc1)(c1ccccc1)n1ccnc1 [CLOTRIMAZOLE] | – | Not Active | Not Active | – | – | Not Active | Not Active | Not Active | – | – | – | – | IC50 ([7]; read-out: IC50): 35 µM; Ki ([7]; read-out: Ki): 22.6 µM |
| O=C(CCCN1CCC(O)(c2ccc(Cl)cc2)CC1)c1ccc(F)cc1 [HALOPERIDOL] | – | Not Active | Not Active | – | – | Not Active | Not Active | Not Active | Not Active | – | – | – | – |
| CN1CCN2c3ccccc3Cc3ccccc3C2C1 (configuration not stated) [MIANSERIN] | – | Not Active | Not Active | – | – | Not Active | Not Active | Not Active | Not Active | – | – | Not Active | – |
| CC(C)(O)c1ccccc1CC[C@@H](SCC1(CC(=O)O)CC1)c1cccc(/C=C/c2ccc3ccc(Cl)cc3n2)c1 [MONTELUKAST] | – | Not Active | Not Active | – | – | Not Active | Not Active | Not Active | Not Active | – | – | Not Active | – |
| NNc1ccccc1 [PHENYLHYDRAZINE] | Not Active | Not Active | Not Active | Not Active | Not Active | Not Active | Not Active | Not Active | Not Active | Not Active | Not Active | – | – |
| O=[N+]([O-])c1cc([As](=O)(O)O)ccc1O [ROXARSONE] | Not Active | Not Active | Not Active | Not Active | Not Active | Not Active | Not Active | Not Active | Not Active | Not Active | Not Active | – | Ki ([1]; sf9): Not Active; Ki [2]: Not Active; Ki (Interstitial collagenase): Not Active; Ki [4]: Not Active; Ki [5]: Not Active; Ki [6]: Not Active; Ki ([7]; platelet): Not Active |
| CSc1ccc2c(c1)N(CCC1CCCCN1C)c1ccccc1S2 (configuration not stated) [THIORIDAZINE] | – | Not Active | Not Active | – | – | Not Active | Not Active | Not Active | Not Active | – | – | Not Active | – |
| COc1cccc(C2(O)CCCCC2CN(C)C)c1 (configuration not stated) [TRAMADOL] | Not Active | Not Active | Not Active | – | – | Not Active | Not Active | Not Active | Not Active | – | – | – | – |
| COc1ccc(C(CN(C)C)C2(O)CCCCC2)cc1 (configuration not stated) [VENLAFAXINE] | Not Active | Not Active | Not Active | Not Active | Not Active | Not Active | Not Active | Not Active | Not Active | Not Active | Not Active | – | – |
| COC(=O)[C@@H]1[C@H]2C[C@H]3c4[nH]c5ccccc5c4CCN3C[C@@H]2CC[C@@H]1O [YOHIMBINE] | – | Not Active | Not Active | Not Active | Not Active | Not Active | Not Active | Not Active | Not Active | Not Active | Not Active | Not Active | – |
| IVERMECTIN | – | Not Active | Not Active | Not Active | Not Active | Not Active | Not Active | Not Active | Not Active | Not Active | Not Active | – | IC50 ([1]; sf9, read-out: IC50): 5.84 µM; Ki ([1]; sf9, read-out: Ki): 2.19 µM; Ki [2]: Not Active; Ki (Interstitial collagenase): Not Active; Ki [4]: Not Active; Ki [5]: Not Active; Ki [6]: Not Active; Ki ([7]; platelet): Not Active |
